Among the data in US12252484B2, “Pyrazolopyridine compounds for the treatment of autoimmune disease” (Hoffmann-La Roche Inc., priority 2018, dated 2025) are IC50 values, retold here.

Read-outs that look alike come from different tables or passages of the source. Where only a bound is given, the exact number is not on record here.

In the assay the target is T1, human TLR9 (Homo sapiens, UniProt Q9NR96).
T1 sequence (Q9NR96 26-1032): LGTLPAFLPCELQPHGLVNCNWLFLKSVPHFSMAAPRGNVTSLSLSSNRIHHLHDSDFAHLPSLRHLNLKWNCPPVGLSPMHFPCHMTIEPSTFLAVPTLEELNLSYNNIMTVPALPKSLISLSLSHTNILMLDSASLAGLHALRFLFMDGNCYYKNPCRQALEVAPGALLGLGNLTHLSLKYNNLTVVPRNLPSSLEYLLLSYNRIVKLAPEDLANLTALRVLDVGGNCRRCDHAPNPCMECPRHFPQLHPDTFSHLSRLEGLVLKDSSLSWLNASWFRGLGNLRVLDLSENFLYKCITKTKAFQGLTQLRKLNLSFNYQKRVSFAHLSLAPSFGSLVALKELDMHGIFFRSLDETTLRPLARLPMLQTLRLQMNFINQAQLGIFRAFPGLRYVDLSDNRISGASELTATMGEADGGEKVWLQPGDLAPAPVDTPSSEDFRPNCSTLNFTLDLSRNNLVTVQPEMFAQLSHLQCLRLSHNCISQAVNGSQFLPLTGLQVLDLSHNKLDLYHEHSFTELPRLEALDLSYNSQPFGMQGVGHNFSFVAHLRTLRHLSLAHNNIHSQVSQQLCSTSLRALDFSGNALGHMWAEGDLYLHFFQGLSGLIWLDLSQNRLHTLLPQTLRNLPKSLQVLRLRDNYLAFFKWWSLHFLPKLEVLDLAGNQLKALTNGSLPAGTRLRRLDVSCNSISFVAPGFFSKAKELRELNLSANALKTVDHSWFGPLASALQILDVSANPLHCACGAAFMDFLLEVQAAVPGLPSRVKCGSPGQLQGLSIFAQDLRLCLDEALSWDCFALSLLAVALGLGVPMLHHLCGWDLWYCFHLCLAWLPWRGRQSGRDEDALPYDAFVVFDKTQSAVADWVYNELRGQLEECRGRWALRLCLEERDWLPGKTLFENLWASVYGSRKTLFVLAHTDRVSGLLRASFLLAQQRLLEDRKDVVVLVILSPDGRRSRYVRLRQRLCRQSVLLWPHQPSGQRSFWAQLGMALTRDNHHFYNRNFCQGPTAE
The experiment in a line: HEK293-Blue-hTLR-9 cells assay (SEAP reporter, ODN2006 stimulation). It is filed as cell-based. On the procedure: The following tests were carried out in order to determine the activity of the compounds of formula (I) in HEK293-Blue-hTLR-7/8/9 cells assay.
HEK293-Blue-hTLR-9 Cells Assay:
A stable HEK293-Blue-hTLR-9 cell line was purchased from InvivoGen (Cat. #: hkb-htlr9, San Diego, California, USA). These cells were originally designed for studying the stimulation of human TLR9 by monitoring the activation of NF-κB. A SEAP (secreted embryonic alkaline phosphatase) reporter gene was placed under the control of the IFN-β minimal promoter fused to five NF-κB and AP-1-binding sites. The SEAP was induced by activating NF-κB and AP-1 via stimulating HEK-Blue hTLR9 cells with TLR9 ligands. Therefore the reporter expression was declined by TLR9 antagonist under the stimulation of a ligand, such as ODN2006 (Cat. #: tlrl-2006-1, Invivogen, San Diego, California, USA), for incubation of 20 hrs. The cell culture supernatant SEAP reporter activity was determined using QUANTI-Blue™ kit (Cat. #: rep-qb1, Invivogen, San Diego, California, USA) at a wavelength of 640 nm, a detection medium that turns purple or blue in the presence of alkaline phosphatase.
HEK293-Blue-hTLR9 cells were incubated at a density of 250,000˜450,000 cells/mL in a volume of 170 μL in a 96-well plate in Dulbecco's Modified Eagle's medium (DMEM) containing 4.5 g/L glucose, 50 U/mL penicillin, […], 2 mM L-glutamine, 10% (v/v) heat-inactivated fetal bovine serum with addition of 20 μL test compound in a serial dilution in the presence of final DMSO at 1% and 10 μL of 20 uM ODN2006 in above DMEM, perform incubation under 37° C. in a CO2 incubator for 20 hrs. Then 20 μL of the supernatant from each well was incubated with 180 μL Quanti-blue substrate solution at 37° C. for 2 hrs and the absorbance was read at 620˜655 nm using a spectrophotometer. The signalling pathway that TLR9 activation leads to downstream NF-κB activation has been widely accepted, and therefore similar reporter assay was modified for evaluating TLR9 antagonist.

Where [1] appears, read: HEK293-Blue-hTLR-9 cells, ODN2006 ligand, 20 hrs incubation, read-out: TLR9 IC50.

The IC50 is the point on the concentration scale where inhibition reaches its midpoint. Turning to `C[C@@H]1CN(c2ccc(C#N)n3nccc23)C[C@H](C(=O)NC23CC4CC(CC(C4)C2)C3)O1` [Example 12, (2R,6R)-N-(1-adamantyl)-4-(7-cyanopyrazolo[1,5-a]pyridin-4-yl)-6-methyl-morpholine-2-carboxamide], the IC50 under setting [1] came to 42 µM.

`C[C@@H]1CN(c2ccc(C#N)n3nccc23)C[C@H](C(=O)NC2CC3CCCC(C2)N3C)O1` (stereo partly drawn) [Example 35, (2R,6R)-4-(7-cyanopyrazolo[1,5-a]pyridin-4-yl)-6-methyl-N-(9-methyl-9-azabicyclo[3.3.1]nonan-3-yl)morpholine-2-carboxamide]: it took 11 µM to reach half-maximal inhibition (IC50).

For `C[C@@H]1CN(c2ccc(Cl)n3nccc23)C[C@H](C(=O)NC2CCN(C)CC2)O1` [Example 38, (2R,6R)-4-(7-chloropyrazolo[1,5-a]pyridin-4-yl)-6-methyl-N-(1-methyl-4-piperidyl)morpholine-2-carboxamide], under setting [1], the IC50 is 36 µM.

As to `C[C@@H]1CN(c2ccc(C#N)n3nccc23)C[C@H](C(=O)N[C@H]2CC[C@@H](O)CC2)O1` [Example 20, Cis-(2R,6R)-4-(7-cyanopyrazolo[1,5-a]pyridin-4-yl)-N-(4-hydroxycyclohexyl)-6-methyl-morpholine-2-carboxamide], the IC50 under setting [1] was 71 µM.

As to `C[C@@H]1CN(c2ccc(C#N)n3nccc23)C[C@H](C(=O)NC2CCNC2)O1` (stereo partly drawn) [Example 25, (2R,6R)-4-(7-cyanopyrazolo[1,5-a]pyridin-4-yl)-6-methyl-N-pyrrolidin-3-yl-morpholine-2-carboxamide], under setting [1], the half-inhibitory concentration (IC50) amounted to 25 µM.

For `C[C@H]1C[C@@H](NCC#N)CN(c2ccc(C#N)n3nccc23)C1` [Example 46, 4-[(3R,5S)-3-(cyanomethylamino)-5-methyl-1-piperidyl]pyrazolo[1,5-a]pyridine-7-carbonitrile], under setting [1], the IC50 came to 31 µM.

With `C[C@@H]1CN(c2ccc(C#N)n3nccc23)C[C@H](C(=O)NC2CC3CCC2CN3C)O1` (stereo partly drawn) [Example 34, (2R,6R)-4-(7-cyanopyrazolo[1,5-a]pyridin-4-yl)-6-methyl-N-(2-methyl-2-azabicyclo[2.2.2]octan-5-yl)morpholine-2-carboxamide], under setting [1], the IC50 was 11 µM.

For the compound `C[C@@H]1CN(c2ccc(C#N)n3nccc23)C[C@H](C(=O)NC(C)(C)CN)O1` [Example 41, (2R,6R)-N-(2-amino-1,1-dimethyl-ethyl)-4-(7-cyanopyrazolo[1,5-a]pyridin-4-yl)-6-methyl-morpholine-2-carboxamide], the IC50 under setting [1] was 11 µM.

Take `C[C@@H]1CN(c2ccc(C#N)n3nccc23)C[C@H](C(=O)NC2C3CNC[C@@H]32)O1` (stereo partly drawn) [Example 31, Trans-(2R,6R)-N-(3-azabicyclo[3.1.0]hexan-6-yl)-4-(7-cyanopyrazolo[1,5-a]pyridin-4-yl)-6-methyl-morpholine-2-carboxamide]: the IC50 under setting [1] was 1.1 µM.

Consider `C[C@@H]1CN(c2ccc(C#N)n3nccc23)C[C@H](C(=O)NC2CC3COCC(C2)N3)O1` (stereo partly drawn) [Example 22, Endo-(2R,6R)-4-(7-cyanopyrazolo[1,5-a]pyridin-4-yl)-6-methyl-N-[3-oxa-9-azabicyclo[3.3.1]nonan-7-yl]morpholine-2-carboxamide], for which the IC50 under setting [1] was 18 µM.

`C[C@@H]1CN(c2ccc(C#N)n3nccc23)C[C@H](C(=O)NC2CCCNCC2)O1` (stereo partly drawn) [Example 6, (2R,6R)-N-(azepan-4-yl)-4-(7-cyanopyrazolo[1,5-a]pyridin-4-yl)-6-methyl-morpholine-2-carboxamide]: the IC50 under setting [1] was found to be 4.8 µM.

Turning to `C[C@@H]1CN(c2ccc(C#N)n3nccc23)C[C@H](C(=O)NC2CNC[C@H]2F)O1` (stereo partly drawn) [Example 5, Cis-(2R,6R)-4-(7-cyanopyrazolo[1,5-a]pyridin-4-yl)-6-methyl-N-(4-fluoropyrrolidin-3-yl) morpholine-2-carboxamide], the IC50 under setting [1] came to 77 µM.

For `C[C@@H]1CN(c2ccc(C#N)n3nccc23)C[C@H](C(=O)NC2CC3CCC(C2)N3)O1` (stereo partly drawn) [Example 23, Exo-(2R,6R)-N-[8-azabicyclo[3.2.1]octan-3-yl]-4-(7-cyanopyrazolo[1,5-a]pyridin-4-yl)-6-methyl-morpholine-2-carboxamide], the IC50 under setting [1] is greater than 100 µM.
